Experimental data from patent US20080075796A1, “Compositions and Methods for Controlling Insects” (TyraTech, Inc., priority 2003, published 2008).

How the values were obtained:
[1] = molecular target: T1, tyramine receptor (TyrR) (Drosophila melanogaster, UniProt P22270); test: Saturation binding of ^3H-tyramine to membranes from Schneider cells expressing tyramine receptor
T1 sequence (P22270 27-601): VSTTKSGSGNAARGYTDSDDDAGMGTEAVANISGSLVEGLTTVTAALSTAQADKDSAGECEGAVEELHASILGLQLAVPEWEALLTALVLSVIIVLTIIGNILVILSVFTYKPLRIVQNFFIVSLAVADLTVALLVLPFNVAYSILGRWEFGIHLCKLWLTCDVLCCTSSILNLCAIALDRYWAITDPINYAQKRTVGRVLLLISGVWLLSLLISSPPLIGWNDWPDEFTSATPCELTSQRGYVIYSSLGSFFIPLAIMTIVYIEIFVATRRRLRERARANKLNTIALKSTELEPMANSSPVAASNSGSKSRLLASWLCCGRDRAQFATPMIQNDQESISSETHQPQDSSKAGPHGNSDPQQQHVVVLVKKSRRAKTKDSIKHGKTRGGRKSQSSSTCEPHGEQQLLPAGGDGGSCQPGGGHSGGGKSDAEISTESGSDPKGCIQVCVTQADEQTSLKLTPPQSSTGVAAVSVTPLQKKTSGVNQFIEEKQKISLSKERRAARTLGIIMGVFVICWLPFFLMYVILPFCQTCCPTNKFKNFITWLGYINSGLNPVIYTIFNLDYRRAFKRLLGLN
Method: A preliminary study to determine the optimum concentration of membrane protein for receptor binding activity is performed. […] After about 1 hr incubation at room temperature, reactions are terminated by filtration through GF/C filters (VWR), which have been previously soaked in about 0.3% polyethyleneimine (PEI). The filters are washed one time with about 4 ml ice cold Iris buffer and air dried before the retained radioactivity is measured using LSC. Binding data is analyzed by curve fitting (GraphPad software, Prism).
Receptor binding reactions are incubated for about 1 hr at room temperature (RT) in restricted light. Reactions are terminated by filtration through OF/C filters (VWR), which have been previously soaked in about 0.3% polyethyleneimine (PEI). The filters are washed one time with about 4 ml ice cold Tris buffer and air dried before retained radioactivity is measured using LSC. Binding data is analyzed by curve fitting (GraphPad software, Prism).

[2] = molecular target: T2, Or43a receptor (Drosophila melanogaster, UniProt P81917, L154V); test: cAMP production in Schneider cells expressing Or43a receptor; assay type: cell-based
T2 construct: His (from vector pAc5.1/V5-His B) (C); expressed in transfected cells
T2 sequence (P81917 whole entry L154V): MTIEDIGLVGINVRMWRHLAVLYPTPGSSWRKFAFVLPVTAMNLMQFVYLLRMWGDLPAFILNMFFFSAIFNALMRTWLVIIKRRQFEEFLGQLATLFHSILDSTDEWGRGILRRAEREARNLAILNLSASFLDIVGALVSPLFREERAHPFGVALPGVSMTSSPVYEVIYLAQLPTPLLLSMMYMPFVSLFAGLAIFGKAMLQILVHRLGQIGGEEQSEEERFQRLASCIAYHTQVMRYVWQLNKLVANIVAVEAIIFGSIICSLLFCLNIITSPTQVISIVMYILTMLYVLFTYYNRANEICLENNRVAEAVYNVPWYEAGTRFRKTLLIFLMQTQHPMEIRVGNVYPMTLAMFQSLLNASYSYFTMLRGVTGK
Method: Cells are grown on dishes and the media changed the day before the treatment. […] About 20 mL of insect saline is added, and cells are harvested by gentle scraping. An aliquot of the cells is counted by hemocytometer, and the cells are then centrifuged for about 5 minutes at about 1000 RPM. Cells are resuspended to give about 3×10^6 cells per mL. IBMX is added to about 200 μM. Then about 1 mL of cell suspension is aliquoted for treatment. Forskolin (cAMP inducing agent), tyramine or different composition candidates are added, and the cells are incubated at about 27° C. for about 10 minutes.
Treated cells are centrifuged at about 13000 g for about 10 seconds. The solution is aspirated and about 1 mL of about −20° C. 70% ethanol is added. The cell pellet is disrupted by vortexing and the samples placed at about −20° C. overnight. Following the ethanol extraction, cellular debris is pelleted by centrifugation at about 13000 g for about 5 minutes. The supernatant is transferred to a tube and lyophilized to dryness in a rotary speed-vac. The resulting extract is resuspended in about 100 μL TE and used for the cAMP assay.
The cAMP assay is based on competition binding between endogenous cAMP and ^3H-cAMP to a cAMP binding protein. The ^3H-cAMP Biotrak system (Amersham Biosciences) is used for this assay as per the manufacturer's instructions. Briefly, about 50 μL of the cellular extract is incubated with about 50 μL ^3H-cAMP and about 100 μL cAMP binding protein in an ice bath for about 2-4 hours. Charcoal (about 100 μL) is then added and the solution centrifuged for about 3 minutes at about 4° C. About 200 μL of the reaction mixture is removed and levels of ^3H-cAMP are determined by scintillation counting.
As such, the cells expressing olfactory receptors have a functionally active cAMP cascade.

[3] = molecular target: T2, Or43a receptor; test: Intracellular Ca^2+ mobilization in Schneider cells expressing Or43a receptor; assay type: cell-based
Method: (§1) Intracellular calcium ion concentrations ([Ca^2+]i) are measured by using the acetoxymethyl (AM) ester of the fluorescent indicator fura-2 (Enan, et al., Biochem. Pharmacol vol 51, 447-454). In this study, cells expressing tyramine receptor are grown under standard conditions. A cell suspension is prepared in assay buffer (140 mM NaCL, 10 mM HEPES, 10 mM glucose, 5 mM KCl, 1 mM CaCl2, 1 mM MgCl2) and cell number adjusted to about 2×10^6 cells per ml. Briefly, about 1.0 ml cell suspension (about 2×10^6 cells) is incubated with about 5 μM Fura 2/AM for about 30 min at about 28° C. After incubation, the cells are pelleted at about 3700 rpm for about 10 sec at room temperature and then resuspended in about 1.5 ml assay buffer. [Ca^2+]i changes are analyzed in spectrofluorometer in the presence and absence of test chemicals. Excitation wave lengths are about 340 nm (generated by Ca^2+-bound fura-2) and about 380 nm (corresponding to Ca^2+-free fura-2). The fluorescence intensity is monitored at an emission wave length of about 510 nm. No absorbance of fluorescence artifacts are observed with any of the compounds used. The ratio of about 340/380 nm is calculated and plotted as a function of time.
(§2) Intracellular Ca^2+ levels are measured using the method described above in Example 3.
Changes in intracellular Ca^2+ levels are calculated based on the difference between the 340/380 fluorescence ratios before and after approximately 150 seconds of the treatment.

[4] = molecular target: T2, Or43a receptor; test: biochemical; assay type: binding
Method: To address whether Or83b receptor and Or43a receptor contain a specific binding site for tyramine, membranes expressing Or83b receptor or Or43a receptor are prepared from cells expressing either receptor, as described above, and used for competitive binding with ^3H-tyramine. The binding assay protocol is exactly as described for cells expressing TyrR, as described above.

[5] = molecular target: T3, Or83b receptor (Drosophila melanogaster, UniProt Q9VNB5); test: Intracellular Ca^2+ mobilization in Schneider cells expressing Or83b receptor; assay type: cell-based; conditions: ionomycin about 2 μM, tyramine about 10 μM
T3 construct: His (from vector pAc5.1/V5-His B) (C); expressed in transfected cells
T3 sequence (Q9VNB5 1-486): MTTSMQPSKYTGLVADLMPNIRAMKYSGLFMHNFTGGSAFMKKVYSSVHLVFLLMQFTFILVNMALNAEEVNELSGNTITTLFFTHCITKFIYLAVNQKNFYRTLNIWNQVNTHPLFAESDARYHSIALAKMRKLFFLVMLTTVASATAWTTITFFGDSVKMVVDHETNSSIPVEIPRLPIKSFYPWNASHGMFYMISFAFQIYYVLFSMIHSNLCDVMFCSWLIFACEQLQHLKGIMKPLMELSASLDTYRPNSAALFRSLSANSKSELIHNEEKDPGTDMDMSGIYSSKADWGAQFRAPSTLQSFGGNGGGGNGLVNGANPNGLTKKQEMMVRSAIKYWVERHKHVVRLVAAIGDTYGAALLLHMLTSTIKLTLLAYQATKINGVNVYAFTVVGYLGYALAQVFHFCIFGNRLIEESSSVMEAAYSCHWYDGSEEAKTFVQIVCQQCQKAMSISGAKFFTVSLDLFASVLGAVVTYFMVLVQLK
Method: as §1, §2

In the case of `NCCc1ccc(O)cc1` [tyramine], the Ki [1] is reported as 1.26 nM, the Bmax ([1]; saturation binding, membranes expressing TyrR, listed as Tyramine) is reported as 0.679 pmol/mg protein and the “change in cAMP levels” value ([2]; agent alone, tyramine about 20 μM, LFO, BSO about 50 μg/ml, forskolin about 10 μM) is reported as “increase in cAMP levels”. The “change in cAMP levels, with forskolin” value ([2]; plus forskolin about 10 μM) was “increase in cAMP levels”, the “change in intracellular Ca^2+ levels (340/380 fluorescence ratio)” value ([3]; before vs approximately 150 seconds after treatment) was “only negligibly” and the “increase in intracellular calcium” value ([3]; ionomycin about 2 μM, tyramine about 10 μM) was about 3.5 fold. For the same compound, the Kd [4] was about 13.5 nM, the Ki [4] was 13.5 nM and the “increase in intracellular calcium” value [5] was about 1.18 fold.
